Reference: patent US20120225062A1 (priority 2011, published 2012)

Tests used:
[1] = test system: KMS11 (human myeloma cell line); assay: Cell Proliferation Assay (CellTiter-Glo, 3 days); type: cell-based; conditions: KMS-11, 72 h, KMS11-luc cells
Summary of the method: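 EC50 from CellTiter-Glo luminescence after 3-day, 37° C compound treatment of KMS11 cells seeded at 2000 per well in IMDM plus 10% FBS.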

Pim 2 = Pim 2 (Homo sapiens, UniProt Q9P1W9); assay: Pim 2 AlphaScreen assay (high ATP)
Pim 1 = Pim 1 (Homo sapiens, UniProt P11309); assay: Pim 1 AlphaScreen assay (high ATP)
Chain of Pim 1 (P11309 whole entry): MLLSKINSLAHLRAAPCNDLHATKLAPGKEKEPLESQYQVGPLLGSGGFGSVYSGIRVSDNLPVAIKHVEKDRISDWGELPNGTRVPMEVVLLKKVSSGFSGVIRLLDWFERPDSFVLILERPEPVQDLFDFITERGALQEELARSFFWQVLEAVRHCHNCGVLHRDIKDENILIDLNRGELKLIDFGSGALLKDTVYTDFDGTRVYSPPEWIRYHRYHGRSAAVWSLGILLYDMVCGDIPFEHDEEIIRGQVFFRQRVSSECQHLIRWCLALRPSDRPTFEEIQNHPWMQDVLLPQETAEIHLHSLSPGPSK

Pim 3 = Pim 3 (Homo sapiens, UniProt Q86V86); assay: Pim 3 AlphaScreen assay (high ATP)

Chain of Pim 2 (Q9P1W9 whole entry): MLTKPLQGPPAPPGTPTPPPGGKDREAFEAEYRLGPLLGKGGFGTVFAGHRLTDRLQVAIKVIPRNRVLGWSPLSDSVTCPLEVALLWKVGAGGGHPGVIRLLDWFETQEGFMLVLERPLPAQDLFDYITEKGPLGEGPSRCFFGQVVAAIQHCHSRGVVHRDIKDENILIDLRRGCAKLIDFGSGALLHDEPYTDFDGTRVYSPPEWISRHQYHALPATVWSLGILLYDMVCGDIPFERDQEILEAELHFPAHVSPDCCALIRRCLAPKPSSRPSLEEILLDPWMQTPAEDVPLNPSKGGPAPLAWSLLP

Structure (SMILES): C[C@@H]1C[C@H](N)C[C@H](c2ccncc2NC(=O)c2cccc(-c3c(F)cc(OC4CCOCC4)cc3F)n2)C1 [Example 187, N-(4-((1R,3S,5S)-3-amino-5-methylcyclohexyl)pyridin-3-yl)-6-(2,6-difluoro-4-(tetrahydro-2H-pyran-4-yloxy)phenyl)picolinamide]
- EC50 [1]: 210 nM
- IC50 (Pim 2): 2.47 nM
- IC50 (Pim 1): 0.03 nM
- IC50 (Pim 3): 1.28 nM

Structure (SMILES): C[C@@H]1C[C@H](N)C[C@H](c2ccncc2NC(=O)c2ccc(F)c(-c3c(F)cc(COC4CCOCC4)cc3F)n2)C1 [Example 149, N-(4-((1R,3S,5S)-3-amino-5-methylcyclohexyl)pyridin-3-yl)-6-(2,6-difluoro-4-((tetrahydro-2H-pyran-4-yloxy)methyl)phenyl)-5-fluoropicolinamide]
- EC50 [1]: 148 nM
- IC50 (Pim 2): 2.96 nM
- IC50 (Pim 1): 0.03 nM
- IC50 (Pim 3): 1.72 nM

Structure (SMILES): COC(C)(C)COc1cc(F)c(-c2nc(C(=O)Nc3cnccc3[C@H]3C[C@@H](N)[C@H](O)[C@@H](C)C3)ccc2F)c(F)c1 [Example 45, N-(4-((1R,3R,4R,5S)-3-amino-4-hydroxy-5-methylcyclohexyl)pyridin-3-yl)-6-(2,6-difluoro-4-(2-methoxy-2-methylpropoxy)phenyl)-5-fluoropicolinamide]
- EC50 [1]: 49 nM
- IC50 (Pim 2): 3.15 nM
- IC50 (Pim 1): 0.03 nM
- IC50 (Pim 3): 1.13 nM

Structure (SMILES): COC1(c2cc(F)c(-c3nc(C(=O)Nc4cnccc4[C@H]4C[C@@H](N)[C@H](O)[C@@H](C)C4)ccc3F)c(F)c2)COC1 [Example 52, N-(4-((1R,3R,4R,5S)-3-amino-4-hydroxy-5-methylcyclohexyl)pyridin-3-yl)-6-(2,6-difluoro-4-(3-methoxyoxetan-3-yl)phenyl)-5-fluoropicolinamide]
- EC50 [1]: 55 nM
- IC50 (Pim 2): 4.79 nM
- IC50 (Pim 1): 0.05 nM
- IC50 (Pim 3): 2.86 nM

Structure (SMILES): C[C@@H]1C[C@H](N)C[C@H](c2ccncc2NC(=O)c2ccc(F)c(-c3c(F)cc(OCC4CC4)cc3F)n2)C1 [Example 64, N-(4-((1R,3S,5S)-3-amino-5-methylcyclohexyl)pyridin-3-yl)-6-(4-(cyclopropylmethoxy)-2,6-difluorophenyl)-5-fluoropicolinamide]
- EC50 [1]: 37 nM
- IC50 (Pim 2): 1.96 nM
- IC50 (Pim 1): 0.01 nM
- IC50 (Pim 3): 0.51 nM

Structure (SMILES): C[C@@H]1C[C@H](N)C[C@H](c2ccncc2NC(=O)c2ccc(F)c(-c3c(F)cc(C4CCS(=O)(=O)CC4)cc3F)n2)C1 [Example 202, N-(4-((1R,3S,5S)-3-amino-5-methylcyclohexyl)pyridin-3-yl)-6-(4-(1,1-dioxidotetrahydro-2H-thiopyran-4-yl)-2,6-difluorophenyl)-5-fluoropicolinamide]
- EC50 [1]: 251 nM
- IC50 (Pim 2): 1.09 nM
- IC50 (Pim 1): 0.01 nM
- IC50 (Pim 3): 0.68 nM

Structure (SMILES): COCCOc1cc(F)c(-c2nc(C(=O)Nc3cnccc3[C@H]3C[C@@H](N)[C@H](O)[C@@H](C)C3)c(N)cc2F)c(F)c1 [Example 120, 3-amino-N-(4-((1R,3R,4R,5S)-3-amino-4-hydroxy-5-methylcyclohexyl)pyridin-3-yl)-6-(2,6-difluoro-4-(2-methoxyethoxy)phenyl)-5-fluoropicolinamide]
- EC50 [1]: 32 nM
- IC50 (Pim 2): 3.78 nM
- IC50 (Pim 1): 0.03 nM
- IC50 (Pim 3): 0.51 nM

Structure (SMILES): C[C@@H]1C[C@H](N)C[C@H](c2ccncc2NC(=O)c2ccc(F)c(-c3c(F)cc(OCC(C)(C)O)cc3F)n2)C1 [Example 50, N-(4-((1R,3S,5S)-3-amino-5-methylcyclohexyl)pyridin-3-yl)-6-(2,6-difluoro-4-(2-hydroxy-2-methylpropoxy)phenyl)-5-fluoropicolinamide]
- EC50 [1]: 13 nM
- IC50 (Pim 2): 3.28 nM
- IC50 (Pim 1): 0.02 nM
- IC50 (Pim 3): 0.72 nM

Structure (SMILES): C[C@H]1C[C@@H](c2ccncc2NC(=O)c2ccc(F)c(-c3c(F)cc(C4(F)COC4)cc3F)n2)C[C@@H](N)[C@@H]1O [Example 136, N-(4-((1R,3R,4R,5S)-3-amino-4-hydroxy-5-methylcyclohexyl)pyridin-3-yl)-6-(2,6-difluoro-4-(3-fluorooxetan-3-yl)phenyl)-5-fluoropicolinamide]
- EC50 [1]: 225 nM
- IC50 (Pim 2): 5.59 nM
- IC50 (Pim 1): 0.08 nM
- IC50 (Pim 3): 4.8 nM

Structure (SMILES): C[C@H]1CN(c2ccncc2NC(=O)c2ccc(F)c(-c3c(F)cc(O[C@@H]4CCCOC4)cc3F)n2)C[C@@H](N)[C@@H]1O [Example 105, N-(4-((3R,4R,5S)-3-amino-4-hydroxy-5-methylpiperidin-1-yl)pyridin-3-yl)-6-(2,6-difluoro-4-((R)-tetrahydro-2H-pyran-3-yloxy)phenyl)-5-fluoropicolinamide]
- EC50 [1]: 96 nM
- IC50 (Pim 2): 0.64 nM
- IC50 (Pim 1): 0.01 nM
- IC50 (Pim 3): 0.17 nM

Structure (SMILES): COCCOc1cc(F)c(-c2nc(C(=O)Nc3cnccc3[C@@H]3C[C@H](C)C[C@H](N)C3)ccc2F)c(F)c1 [Example 12, N-(4-((1R,3S,5S)-3-amino-5-methylcyclohexyl)pyridin-3-yl)-6-(2,6-difluoro-4-(2-methoxyethoxy)phenyl)-5-fluoropicolinamide]
- EC50 [1]: 120 nM
- IC50 (Pim 2): 2.91 nM
- IC50 (Pim 1): 0.04 nM
- IC50 (Pim 3): 1.39 nM

Structure (SMILES): CCOC(C)(C)c1cc(F)c(-c2nc(C(=O)Nc3cnccc3[C@@H]3C[C@H](C)C[C@H](N)C3)ccc2F)c(F)c1 [Example 145, N-(4-((1R,3S,5S)-3-amino-5-methylcyclohexyl)pyridin-3-yl)-6-(4-(2-ethoxypropan-2-yl)-2,6-difluorophenyl)-5-fluoropicolinamide]
- EC50 [1]: 244 nM
- IC50 (Pim 2): 3.5 nM
- IC50 (Pim 1): 0.03 nM
- IC50 (Pim 3): 1.99 nM

Structure (SMILES): C=CCOc1ccc(F)c(-c2nc(C(=O)Nc3cnccc3[C@H]3C[C@@H](N)[C@H](O)[C@@H](C)C3)ccc2F)c1F [Example 194, 6-(3-(allyloxy)-2.6-difluorophenyl)-N-(4-((1R,3R,4R,5S)-3-amino-4-hydroxy-5-methylcyclohexyl)pyridin-3-yl)-5-fluoropicolinamide]
- EC50 [1]: 1340 nM
- IC50 (Pim 2): 10.4 nM
- IC50 (Pim 1): 0.05 nM
- IC50 (Pim 3): 1.19 nM

Structure (SMILES): C[C@@H]1C[C@H](N)C[C@H](c2ccncc2NC(=O)c2ccc(F)c(-c3c(F)cc(OCC4CCOCC4)cc3F)n2)C1 [Example 177, N-(4-((1R,3S,5S)-3-amino-5-methylcyclohexyl)pyridin-3-yl)-6-(2,6-difluoro-4-((tetrahydro-2H-pyran-4-yl)methoxy)phenyl)-5-fluoropicolinamide]
- EC50 [1]: 381 nM
- IC50 (Pim 2): 1.33 nM
- IC50 (Pim 1): 0.02 nM
- IC50 (Pim 3): 0.78 nM

Structure (SMILES): C[C@H]1C[C@@H](c2ccncc2NC(=O)c2ccc(F)c(-c3c(F)cc(CC(C)(C)O)cc3F)n2)C[C@@H](N)[C@@H]1O [Example 85, N-(4-((1R,3R,4R,5S)-3-amino-4-hydroxy-5-methylcyclohexyl)pyridin-3-yl)-6-(2,6-difluoro-4-(2-hydroxy-2-methylpropyl)phenyl)-5-fluoropicolinamide]
- EC50 [1]: 49 nM
- IC50 (Pim 2): 2.2 nM
- IC50 (Pim 1): 0.05 nM
- IC50 (Pim 3): 1.34 nM

Structure (SMILES): C[C@H]1C[C@@H](c2ccncc2NC(=O)c2nc(-c3c(F)cc(C(C)(C)O)cc3F)c(F)cc2N)C[C@@H](N)[C@@H]1O [Example 101, 3-amino-N-(4-((1R,3R,4R,5S)-3-amino-4-hydroxy-5-methylcyclohexyl)pyridin-3-yl)-6-(2,6-difluoro-4-(2-hydroxypropan-2-yl)phenyl)-5-fluoropicolinamide]
- EC50 [1]: 30 nM
- IC50 (Pim 2): 1.3 nM
- IC50 (Pim 1): 0.02 nM
- IC50 (Pim 3): 0.36 nM
